The results in this text go back to US6962909B2, “Treatment of neovascularization disorders with squalimine” (Genaera Corporation, priority 1995, dated 2005).

Test [1] concerns heart of a juvenile Xenopus laevis frog. Nature of the test: Isolated frog heart, persistence of beating ex vivo. The note with it: 10 μg/ml; Krebs-Ringer buffer with adrenaline 50 μg/ml; without compound about one hour. As to the method:
To determine if compound 1436 has such utility, the following experiment was performed. The heart of a juvenile Xenopus laevis frog was dissected from the living animal. The heart was placed into a Petri dish containing Krebs-Ringer buffer with adrenaline 50 μg/ml, and examined with the naked eye. At room temperature, the heart continued beating in a coordinated fashion (atrial beat followed by ventricular beat) for about one hour. In the presence of 10 μg/ml of compound 1436, spontaneous beating persisted up to 24 hours.

Test [2] concerns human umbilical venous endothelial cells. Nature of the test: LPS/TNF-α-induced neutrophil adherence to endothelial cells. Type of test: cell-based. The note with it: squalamine 10 μg, 1.0 μg or 0.1 μg; three subjects. As to the method: To determine if squalamine inhibited this particular endothelial cell function, standard adhesion assays were performed as outlined in Gamble et al., J. Imm. Methods 109, 1988, 175-184. […] In these experiments, approximately 2×10^5 human umbilical venous cells (passage 2-6) were plated per well. The cells were grown in serum-free media overnight. For induction, either TNF-α (40 ng/ml) was added to endothelial cells for 6 hours prior to adding neutrophils or LPS (100 ng/ml) was added for 4-6 hours. […] After activation of the endothelial cells, approximately 50×10^6 neutrophils were added per well. The plates were gently rocked for 30 minutes at room temperature, followed by removal of the media and washing in serum-free media three times and then photographing of each well. Experiments to test the effects of squalamine were performed by adding squalamine at 10 μg, 1.0 μg, or 0.1 μg at the time of adding LPS or TNF-α. A second repeat dose of squalamine was added at the time of adding neutrophils. A monoclonal Ab to ICAM-1 was a positive control.

The structures appear in SMILES notation.

For the compound `CC(CC[C@@H](OS(=O)(=O)O)C(C)C)[C@H]1CCC2C3C(CC[C@@]21C)[C@@]1(C)CC[C@H](NCCCNCCCCNCCCN)C[C@@H]1C[C@H]3O` (some centres unmarked) [Compound 1436], the “Persistence of spontaneous beating” value in test [1] is reported as “up to 24 hours”. Turning to `CC(CC[C@@H](OS(=O)(=O)O)C(C)C)[C@H]1CCC2C3C(CC[C@@]21C)[C@@]1(C)CC[C@H](NCCCNCCCCN)C[C@@H]1C[C@H]3O` (some centres unmarked) [squalamine], the “Inhibition of neutrophil adherence” value in test [2] was “no inhibition”.
